From publication PMC5290737, “Surface mediated cooperative interactions of drugs enhance mechanical forces for antibiotic action” (Scientific Reports, 2017)
Read-outs that look alike come from different tables or passages of the source.

Assays:
[1] = tested on: vancomycin-susceptible receptor (VSR); experiment: Cantilever surface stress assay, antibiotic binding to surface-bound VSR; conditions: for mechanical response (in words): 3 μM drug against VSR; for Kd: VSR on cantilever, fit of equation (2); for maximum stress data, Mean / Mean difference of stress, VSR versus VRR: 4 chips; for maximum stress data, Mean: one-way ANOVA table S5; for mechanical force (F = kΔz): against VSR on the cantilever, Fig. 6b (10 μM); for Mean difference of stress, VSR versus VRR: independent samples t-test, table S6; for mechanical response, free end deflection: Van 1000 μM against VSR
Excerpt: (§1) To probe different pathways of signal-transduction central to the efficacy of recognition mechanisms and therapeutic agents, we used cantilever force-based technology. Because of its nanometre strain sensitivity, this technology can directly measure the smallest changes in mechanical strain caused by specific antibiotic binding. The principles of force transduction and measurements are well established[18][19][20] and many studies focused on cantilever sensors have been published. Unlike conventional methods such as 1H–NMR spectroscopy, enzyme-linked immunosorbent assays (ELISA)[29] or surface plasmon resonance (SPR)[30] which measure optical signatures of chemical binding, cantilever technology has the capacity to resolve forces at the level of individual hydrogen bonds, making it uniquely suited to provide important insight into force transduction mechanisms, such as cell wall strain in response to antibiotic binding. Moreover, in contrast to direct current or low-frequency signals, which cannot probe beyond electrical double layers formed by screening salts, mechanical signaling is sensitive to ligands even when they are located at distance of ~1 nm or more from the sensor surface (Fig. 1d). Measurements were performed using cantilevers functionalized with self-assembled monolayers (SAM) of VSR, VRR or reference polyethylene glycol (PEG) (see methods & materials, Supplementary Information). The specificity of mechanical signaling was achieved by performing measurements in differential mode, where the bending response of the reference PEG-coated cantilevers, (known to reduce nonspecific drug adsorption[8][14][34]) was subtracted from VSR- and VRR-coated cantilever signals (see cantilever measurement procedure, method section).
(§2) Thus far, we have discussed the impact of near-membrane layer on the association kinetics, mechanical force transduction, specificity of molecular recognition and microbial susceptibility. To gain mechanistic insight (Fig. 7a,b), we averaged measurements for each drug-target interaction over four separate chips and the results are summarized in Fig. 7c,d. […] The mechanical signaling response follows an s-shaped curve undergoing its steepest rise at N ~1/Ksurf before reaching a plateau when the binding sites are fully occupied (Fig. 7c,d). To calculate Ksurf, we used equation (2)[14], based on the conventional Hill adsorption model.
(§3) Here, Ksurf is raised to the power n to ensure that it maintains the dimension of concentration as n varies. Setting n = 1 yields the Langmuir isotherm where the reactions occur independently, while n > 1 corresponds to positive co-operative polyvalent interactions and n < 1 is a measure of negative co-operativity. In Fig. 7c,d, we find that the mechanical response at VSR levels off at 50 μM concentration for all antibiotics. In contrast, for the drug-resistant VRR a concentration of more than 1000 μM of Van, Rist or CE was required to reach indistinguishable maximum signals. The outcome of the fit using three parameters (n, Ksurf and σmax) is summarized in Supplementary Fig. 2. The calculated Ksurf for Ori binding to VSR is 40 ± 10 nM, which is 25 times stronger than for Van where Ksurf is 1.0 ± 0.3 μM. The Ksurf of Ori against VRR is 70 ± 10 nM, an astonishing 11,000 times stronger than for Van where Ksurf is 800 ± 300 μM. As a further measurement control and to confirm the accuracy of surface binding affinity, we used a commercially available SPR method (Fig. 7e,f and Supplementary SPR sensor chip functionalization procedure), where the detection of ligands is at a single planar metal surface.
(§4) The modified cantilever chip was mounted in a sealed liquid cell. The alignment of each light source onto the free end of each cantilever was confirmed by heating liquid chamber to 1 °C rise. […]

[2] = tested on: methicillin-resistant Staphylococcus aureus (MRSA); conditions: absence of polysorbate-80; supplementary references; cited from earlier work
[3] = tested on: vancomycin susceptible E. faecalis (VSE); conditions: absence of polysorbate-80; ref. 9 (Van, CE, Ori), ref. 10 (Rist), supplementary references; cited from earlier work
[4] = tested on: vancomycin-resistant receptor (VRR); experiment: Cantilever surface stress assay, antibiotic binding to surface-bound VRR; conditions: for mechanical response (in words): 3 μM drug against VRR; for compressive surface stress: 10 μM antibiotic against VRR; for Kd: fit of equation (2); for maximum stress data, Mean: 4 chips, one-way ANOVA table S4
Excerpt: as §1, §2, §3, §4

[5] = target: VSR (Ac-VSR) in solution; conditions: cited from earlier work
[6] = tested on: Staphylococcus aureus, enterococcus faecalis and enterococcus faecium; set-up: method as in PMID 19369269; conditions: cited from earlier work
[7] = target: vancomycin-resistant receptor (VRR); conditions: ref. 3 (Van), ref. 5 (Rist), ref. 4 (CE), supplementary references, read-out: Ksurf SPR; cited from earlier work
[8] = target: vancomycin-susceptible receptor (VSR); experiment: Surface plasmon resonance (SPR) binding to VSR; conditions: T100 BIAcore, fit of equation (2), read-out: Ksurf SPR
Protocol: The SPR sensor chip functionalization procedure is summarized (see methods & materials Supplementary Information) while the measurement protocol has been described previously. In brief we used a T100 BIAcore SPR instrument in which a series of binding analyses for Van was performed. […] The corresponding SPR response signals featured an S-shaped curve, with a steep rise, then a plateau when Van concentration was increased beyond 50 μM (Fig. 7e,f). The resulting SPR differential response signals in sodium phosphate buffer solution for 0.1 μM, 0.5 μM, 2 μM, 8 μM and 128 μM were then computed using equation (2) to calculate the surface thermodynamic equilibrium dissociation constant, Ksurf of drug-target interactions.
Surface plasmon resonance (SPR) sensor chip functionalization procedure. We applied the same cantilever functionalization procedure to the SPR sensor chip functionalization. […]
The differential stress measurements obtained from cantilever chips are typically associated with multiple parameters including number of repeated measurements, concentration and the number of cantilevers where each array has eight individual cantilevers. The statistical analysis was found to be essential for replacing a vast quantity of data with numbers such as the averages and standard deviations. […]

[9] = pH 7.4 sodium phosphate buffer, read-out: Ksurf Cantilever (surface equilibrium dissociation constant)
[10] = VRR on cantilever, pH 7.4 sodium phosphate buffer, read-out: Ksurf Cantilever (surface equilibrium dissociation constant)
[11] = VSR in solution, ref. 1 (Van, Rist), ref. 7 (CE), ref. 2 (Ori), supplementary references, read-out: Ksurf Solution
[12] = solution, read-out: binding affinity against Ac-VSR

Structure (SMILES)	mechanical response (in words) [1]	Kd [1, 9] [µM]	maximum stress data, Mean ([1]; VSR)	mechanical force (F = kΔz) [1]	Mean difference of stress, VSR versus VRR [1]	MIC MRSA [2] [µg/mL]	MIC VSE [3] [µg/mL]	mechanical response (in words) [4]	compressive surface stress [4]	Kd [4, 10] [µM]	maximum stress data, Mean ([4]; VRR)	Kd [5, 11] [µM]	Kd [5, 12] [µM]	other results
CN[C@H](CC(C)C)C(=O)N[C@H]1C(=O)N[C@@H](CC(N)=O)C(=O)N[C@H]2C(=O)N[C@H]3C(=O)N[C@H](C(=O)N[C@H](C(=O)O)c4cc(O)cc(O)c4-c4cc3ccc4O)[C@H](O[C@H]3C[C@](C)(N)[C@@H](O)[C@H](C)O3)c3ccc(c(Cl)c3)Oc3cc2cc(c3O[C@@H]2O[C@H](CO)[C@@H](O)[C@H](O)[C@H]2O[C@H]2C[C@](C)(NCc3ccc(-c4ccc(Cl)cc4)cc3)[C@@H](O)[C@H](C)O2)Oc2ccc(cc2Cl)[C@H]1O [Ori, oritavancin]	significantly large mechanical response	0.04 ± 0.01	33.8	~ 3.6 nN	13.2	0.13 to 1.01	0.25 to 2	significantly large mechanical response	~ 23 mNm^−1	0.07 ± 0.01	20.6	3.8	~1	Kd ([1]; read-out: Ksurf (cantilever)): 0.04 ± 0.01 µM; Ksurf of Ori against VSR, times stronger than for Van ([1]; ratio of cantilever Ksurf, VSR): 25 times; Kd ([4]; VRR (drug-resistant target) on cantilever, read-out: Ksurf (cantilever)): 0.07 µM; Ksurf of Ori against VRR, times stronger than for Van ([4]; ratio of cantilever Ksurf, VRR): 11,000 times; deleterious force sensitivity s = σeq/n ([4]; σeq = 23 mNm^−1, n ~10^11 receptor molecules per cantilever): ~ 20 fNm^−1
CN[C@H](CC(C)C)C(=O)N[C@H]1C(=O)N[C@@H](CC(N)=O)C(=O)N[C@H]2C(=O)N[C@H]3C(=O)N[C@H](C(=O)N[C@H](C(=O)O)c4cc(O)cc(O)c4-c4cc3ccc4O)[C@H](O)c3ccc(c(Cl)c3)Oc3cc2cc(c3O[C@@H]2O[C@H](CO)[C@@H](O)[C@H](O)[C@H]2O[C@H]2C[C@](C)(N)[C@H](O)[C@H](C)O2)Oc2ccc(cc2Cl)[C@H]1O [Van, vancomycin]	reduced overall stress transduction	1 ± 0.3	33.5	~ 3 nN	26.1	0.5 to 4	0.5 to 4	no effect	~ 0.4 mNm^−1	800	7.4	1	~1	time–kill kinetics [6]: 6 to 24 h; mechanical response, free end deflection ([1]; near-membrane layer thickness ~1 nm): ~ 220 nm; mechanical response, free end deflection ([1]; near-membrane layer thickness ~50 nm): ~ 150 nm; Kd [7]: 526 µM; concentration required to reach indistinguishable maximum signals ([4]; VRR): more than 1000 μM; Kd [8]: 1.1 ± 0.4 µM
